Reference: article PMC7013532, “Scenarios of Genes-to-Terpenoids Network Led to the Identification of a Novel α/β-Farnesene/β-Ocimene Synthase in Camellia sinensis” (International Journal of Molecular Sciences, 2020)

Target: TPS2 (Camellia sinensis, UniProt A0A3G3IRF8)
Test: SPME GC-MS product analysis
Format: biochemical
Details: pH 7.5, 50 mM Tris-HCl, 10 mM MgCl2, 5 mM DTT, 30 °C

TPS2, sequence (A0A3G3IRF8 entry or part of it): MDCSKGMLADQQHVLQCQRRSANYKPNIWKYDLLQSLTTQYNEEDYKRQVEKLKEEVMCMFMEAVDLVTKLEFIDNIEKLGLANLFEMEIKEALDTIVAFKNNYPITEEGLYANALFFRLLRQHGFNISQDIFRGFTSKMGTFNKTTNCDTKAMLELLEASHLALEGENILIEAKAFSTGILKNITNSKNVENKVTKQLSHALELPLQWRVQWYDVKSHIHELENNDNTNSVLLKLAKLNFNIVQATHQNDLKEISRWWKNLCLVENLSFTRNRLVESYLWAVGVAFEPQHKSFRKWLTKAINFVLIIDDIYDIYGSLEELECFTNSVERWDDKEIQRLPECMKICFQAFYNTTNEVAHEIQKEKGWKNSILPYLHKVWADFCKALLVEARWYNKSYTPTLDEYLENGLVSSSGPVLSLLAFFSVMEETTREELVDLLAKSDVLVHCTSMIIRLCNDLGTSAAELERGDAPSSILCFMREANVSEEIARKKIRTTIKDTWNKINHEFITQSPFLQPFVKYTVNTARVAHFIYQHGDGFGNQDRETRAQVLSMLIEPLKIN

| SMILES | SPME GC-MS product analysis (products beta-farnesene (main) and alpha-farnesene) | SPME GC-MS product analysis (product beta-ocimene) |
| --- | --- | --- |
| CC(C)=CCC/C(C)=C/CC/C(C)=C/COP(=O)(O)OP(=O)(O)O [FPP] | The main product produced by TPS2 using FPP as a substrate was β-farnesene |  |
| CC(C)=CCC/C(C)=C/COP(=O)(O)OP(=O)(O)O [GPP] |  | β-ocimene is the resulting product when using GPP is used as the substrate |
